Some test systems named below: KM12 colon; RXF 393 renal; SK-MEL-5 melanoma; OVCAR-5 ovarian; 786-0 renal; SF-539 CNS; U251 CNS; MDA-N; UACC-257 melanoma; MOLT-4 leukemia; SW-620 colon; A498 renal; UACC-62 melanoma; TK-10 renal; COLO 205 colon; SK-MEL-28 melanoma; HCT-116 colon; CAKI-1 renal; SR leukemia; OVCAR-3 ovarian.
What all share (experiment): DTP human tumour cell line panel, 48 h

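Values below derive from 48-hour exposures of cells grown in 96-well plates, with endpoints linearly interpolated between the two concentrations bracketing the appropriate inhibition level. TGI: total growth inhibition.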 A value given as a limit tells only on which side of the number the result lay.

Turning to `CC(=O)Nc1ccc2cc(C)c(=O)[nH]c2n1`, the TGI with KM12 colon, in the test with RXF 393 renal, in the test on SK-MEL-5 melanoma, in the test on OVCAR-5 ovarian, in the test with 786-0 renal and in the test with SF-539 CNS was above 100 µM throughout. Moreover, the TGI in the test with U251 CNS, in the test with MDA-N, with UACC-257 melanoma, in the test on MOLT-4 leukemia, with SW-620 colon and in the test on A498 renal was above 100 µM in each case. For the same molecule, the total growth inhibition concentration (TGI) with UACC-62 melanoma, with TK-10 renal, with COLO 205 colon, with SK-MEL-28 melanoma, in the test with HCT-116 colon and with CAKI-1 renal was above 100 µM throughout. Moreover, in the test on SR leukemia, the TGI is above 100 µM.
With `O=C1C[C@H]2[C@@H](O1)[C@@H](O)CN1C(=O)c3ccccc3[C@H]21`, the TGI in the test with KM12 colon, in the test on RXF 393 renal, in the test with SK-MEL-5 melanoma, in the test on OVCAR-5 ovarian, with 786-0 renal and in the test on SF-539 CNS was above 100 µM throughout. Also, the TGI in the test on U251 CNS, in the test on MDA-N, in the test on UACC-257 melanoma, with MOLT-4 leukemia, with SW-620 colon and in the test with A498 renal was above 100 µM throughout. The TGI in the test with UACC-62 melanoma, with TK-10 renal, with COLO 205 colon, with SK-MEL-28 melanoma, in the test with HCT-116 colon and with CAKI-1 renal was above 100 µM throughout. In the test with SR leukemia, this molecule gave a concentration for total growth inhibition (TGI) above 100 µM.
`COc1ccc(OC)c(N2C(=O)CSC2c2cc(OC)c(OC)c(OC)c2)c1` (configuration not stated): the TGI in the test on KM12 colon, in the test on SK-MEL-5 melanoma, with OVCAR-5 ovarian, with 786-0 renal, in the test on SF-539 CNS and in the test with U251 CNS was above 100 µM each time. The TGI with MDA-N, with UACC-257 melanoma, in the test on MOLT-4 leukemia, with SW-620 colon, in the test with A498 renal and in the test on UACC-62 melanoma was above 100 µM in each case. Also, the TGI with TK-10 renal, in the test with COLO 205 colon, in the test on SK-MEL-28 melanoma, in the test on OVCAR-3 ovarian, in the test with HCT-116 colon and in the test with CAKI-1 renal was above 100 µM in each case. This molecule had a TGI with SR leukemia above 100 µM.
On to `Cn1c(N)c2c3c(sc2nc1=O)CCCC3`, for which the concentration for total growth inhibition (TGI) in the test on KM12 colon, with RXF 393 renal, with SK-MEL-5 melanoma, in the test on OVCAR-5 ovarian, in the test on 786-0 renal and in the test on U251 CNS was above 75 µM in each case. For the same molecule, the TGI with MDA-N, in the test on UACC-257 melanoma, in the test with MOLT-4 leukemia, in the test with SW-620 colon, in the test on A498 renal and in the test on UACC-62 melanoma was above 75 µM each time. Also, the TGI in the test with TK-10 renal, with COLO 205 colon, in the test with SK-MEL-28 melanoma, in the test with OVCAR-3 ovarian, in the test with HCT-116 colon and in the test with CAKI-1 renal was above 75 µM each time. This molecule also returned a TGI with SR leukemia above 75 µM.
With `Cn1c(=O)c2c(no[n+]2[O-])c2ccccc21`, the TGI with KM12 colon was 25.2 µM; with RXF 393 renal, 62 µM; in the test with SK-MEL-5 melanoma, 26 µM; with 786-0 renal it was 39.1 µM; in the test on SF-539 CNS, above 100 µM; with U251 CNS, 34.7 µM. Moreover, the TGI with MDA-N was found to be 87.2 µM; with UACC-257 melanoma it was 33.2 µM; with MOLT-4 leukemia it was 44.4 µM; in the test with SW-620 colon, 41.2 µM; in the test on A498 renal, 70.2 µM; with UACC-62 melanoma it was 31.8 µM. Further, the TGI in the test on TK-10 renal was determined as 56.5 µM; in the test with COLO 205 colon it was 35.8 µM; with OVCAR-3 ovarian it was 48.4 µM; in the test with HCT-116 colon, 30.2 µM; with CAKI-1 renal it was 32.4 µM; in the test with SR leukemia, 52.3 µM.
With `CCOC(=O)NC1CN2CCC1CC2` (configuration not stated), the TGI with KM12 colon, in the test with RXF 393 renal, in the test with SK-MEL-5 melanoma, with OVCAR-5 ovarian, in the test with 786-0 renal and in the test on SF-539 CNS was above 100 µM each time. For the same molecule, the concentration for total growth inhibition (TGI) in the test with U251 CNS, in the test on MDA-N, with UACC-257 melanoma, in the test on MOLT-4 leukemia, in the test on SW-620 colon and in the test on A498 renal was above 100 µM each time. For the same molecule, the TGI in the test on UACC-62 melanoma, with COLO 205 colon, in the test on SK-MEL-28 melanoma, in the test with OVCAR-3 ovarian, in the test on HCT-116 colon and in the test with CAKI-1 renal was above 100 µM each time. Further, in the test on SR leukemia, the TGI was above 100 µM.
For the molecule `CCOC(=O)c1ccc(C(=O)/C(C#N)=C2\CCCN2C)[nH]1`, the concentration for total growth inhibition (TGI) in the test on KM12 colon, with RXF 393 renal, in the test with SK-MEL-5 melanoma, with OVCAR-5 ovarian, in the test on 786-0 renal and with U251 CNS was above 100 µM throughout. The total growth inhibition concentration (TGI) with MDA-N, in the test on UACC-257 melanoma, in the test with MOLT-4 leukemia, in the test with SW-620 colon, with A498 renal and with UACC-62 melanoma was above 100 µM in each case. Moreover, the TGI with TK-10 renal, in the test on COLO 205 colon, with SK-MEL-28 melanoma, in the test with OVCAR-3 ovarian, in the test on HCT-116 colon and in the test on CAKI-1 renal was above 100 µM in each case. For the same molecule, the TGI in the test on SR leukemia was above 100 µM.

Source of the values: PubChem BioAssay (NCI).
